Assays:
hCMEC/D3 cells = assay: Cellular uptake/internalization of FAM-labelled peptide (lysate fluorescence normalized to protein; fluorescence imaging); type: in vitro ADME, human; settings: 3 h
Description: All experiments were performed on human brain microvascular endothelial cell line (hCMEC/D3; Millipore Sigma, Massachusetts, US, cat# SCC066), an established and well characterized model of human BBB in vitro [11, 15, 16]. Cells (2.5 × 10^3/cm^2; passages 29–32) were cultured on sterile flasks, 96-well plates (for cell viability) and chamber slides (for immunofluorescence imaging) previously coated with Matrigel in HEPES buffered basal endothelial medium (EBM2) supplemented with various growth factors and 5% FBS using Lonza EGM2 MV BulletKit™ [15]. Following 80–90% confluence, cells were subjected to experimental conditions as listed below with serum concentration reduced to 1% FBS. Culture medium’s composition was adjusted (EBM2 medium buffered with HEPES and 1% BSA with no growth factors) to determine the effects of pH and serum (%; protein binding) on the cellular uptake of FAM-OL peptide. Basic pH was maintained with addition of 1 N sodium hydroxide to the medium, while acidic pH was established by addition of phosphoric acid. Cells were lysed with RIPA buffer at the end of treatment with OL peptide and the florescence intensity was measured using BioTek Synergy2 Multimode microplate reader using cellular lysates from cells treated with 0.1% DMSO as controls at 490/520 nm. […]

[1] = BSA-conjugated monosaccharides and cell-based assays; relative to L-fucose; cited from earlier work
Source text: Previous studies reported the potential of lectins as drug carriers to specific sites of action based on their ability to selectively bind to specific sugar moieties of targeted cells. In addition, lectins could promote drug targeting into or across the cell barriers through vesicular transport. […] As also shown in Fig. 4, it is quite evident that the internalized OL is stable at all concentration tested further supporting the notion that this peptide is likely internalized into the cellular endosome but not the lysosomes.

[2] = parameters: method as in PMID 18584053; settings: cited from earlier work
mice = tested on: mice; parameters: method as in PMID 18584053; settings: cited from earlier work

Substance: odorranalectin [OL]
- Concentration dependence of cellular uptake (hCMEC/D3 cells; hCMEC/D3, 10-100 µg/mL, 37 °C, media 1% FBS, 0.1% DMSO, fluorescence imaging / lysate fluorescence 490/520 nm normalized per µg protein (BCA), N = 4-5): increased linearly
- Cellular uptake compared to scramble peptide at identical concentrations (hCMEC/D3 cells; hCMEC/D3, 37 °C, 1% FBS, total cell lysate fluorescence normalized per µg protein, side by side, P < 0.01): two to threefolds higher
- Binding to N-acetyl-d-galactosamine [1]: to a lesser degree
- Binding to galactose [1]: to a lesser degree
- Immunogenicity [2]: low immunogenicity
- Toxicity profile in mice (mice): low toxicity profile

Source: article PMC6505199, “In vitro characterization of odorranalectin for peptide-based drug delivery across the blood–brain barrier” (BMC Neuroscience, 2019)
